Experimental data taken from ChEMBL document CHEMBL1201862, “PubChem BioAssay data set” (2004).
Calls of active or inactive are those of the source.

Columns and labels:
[1] = biological target: T1, Replicative DNA helicase DnaB (Mycobacterium tuberculosis, UniProt P9WMR3); assay: DnaB intein splicing inhibitors, dose response, biochemical, cell-free fluorescence (AID 449749); assay type: functional
T1 sequence (P9WMR3 whole entry): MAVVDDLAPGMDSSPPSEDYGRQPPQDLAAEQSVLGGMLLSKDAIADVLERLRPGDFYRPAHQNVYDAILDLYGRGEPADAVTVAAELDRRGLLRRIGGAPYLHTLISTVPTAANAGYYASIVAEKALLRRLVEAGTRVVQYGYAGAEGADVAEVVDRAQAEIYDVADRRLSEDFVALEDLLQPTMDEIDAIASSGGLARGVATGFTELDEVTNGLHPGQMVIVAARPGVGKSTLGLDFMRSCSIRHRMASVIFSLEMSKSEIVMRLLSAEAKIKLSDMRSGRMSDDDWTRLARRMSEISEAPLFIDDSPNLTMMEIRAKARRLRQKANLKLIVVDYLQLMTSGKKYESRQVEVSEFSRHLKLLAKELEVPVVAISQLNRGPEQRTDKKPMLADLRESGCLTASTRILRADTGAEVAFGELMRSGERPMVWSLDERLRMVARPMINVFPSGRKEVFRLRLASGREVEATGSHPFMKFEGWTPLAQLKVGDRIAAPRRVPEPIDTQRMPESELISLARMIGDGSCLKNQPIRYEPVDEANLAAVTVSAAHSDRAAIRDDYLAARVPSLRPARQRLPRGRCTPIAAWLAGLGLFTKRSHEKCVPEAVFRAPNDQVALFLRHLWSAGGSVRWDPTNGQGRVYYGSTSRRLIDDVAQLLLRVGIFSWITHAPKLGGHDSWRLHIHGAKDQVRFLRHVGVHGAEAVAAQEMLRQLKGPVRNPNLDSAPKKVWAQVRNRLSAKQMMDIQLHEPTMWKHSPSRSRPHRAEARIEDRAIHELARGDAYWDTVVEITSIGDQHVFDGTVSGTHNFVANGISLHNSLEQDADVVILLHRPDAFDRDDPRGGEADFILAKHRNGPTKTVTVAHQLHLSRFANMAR

Protein RecA = biological target: T2, Protein RecA (Mycobacterium tuberculosis, UniProt P9WHJ3); assay: Fluorescence Cell-Free Homogeneous Dose Retest to Identify Inhibitors of RecA-Intein Splicing Activity. [Related pubchem assays (depositor defined):AID2097, AID2223, AID489010, AID492950]; assay type: functional
T2 sequence (P9WHJ3 whole entry): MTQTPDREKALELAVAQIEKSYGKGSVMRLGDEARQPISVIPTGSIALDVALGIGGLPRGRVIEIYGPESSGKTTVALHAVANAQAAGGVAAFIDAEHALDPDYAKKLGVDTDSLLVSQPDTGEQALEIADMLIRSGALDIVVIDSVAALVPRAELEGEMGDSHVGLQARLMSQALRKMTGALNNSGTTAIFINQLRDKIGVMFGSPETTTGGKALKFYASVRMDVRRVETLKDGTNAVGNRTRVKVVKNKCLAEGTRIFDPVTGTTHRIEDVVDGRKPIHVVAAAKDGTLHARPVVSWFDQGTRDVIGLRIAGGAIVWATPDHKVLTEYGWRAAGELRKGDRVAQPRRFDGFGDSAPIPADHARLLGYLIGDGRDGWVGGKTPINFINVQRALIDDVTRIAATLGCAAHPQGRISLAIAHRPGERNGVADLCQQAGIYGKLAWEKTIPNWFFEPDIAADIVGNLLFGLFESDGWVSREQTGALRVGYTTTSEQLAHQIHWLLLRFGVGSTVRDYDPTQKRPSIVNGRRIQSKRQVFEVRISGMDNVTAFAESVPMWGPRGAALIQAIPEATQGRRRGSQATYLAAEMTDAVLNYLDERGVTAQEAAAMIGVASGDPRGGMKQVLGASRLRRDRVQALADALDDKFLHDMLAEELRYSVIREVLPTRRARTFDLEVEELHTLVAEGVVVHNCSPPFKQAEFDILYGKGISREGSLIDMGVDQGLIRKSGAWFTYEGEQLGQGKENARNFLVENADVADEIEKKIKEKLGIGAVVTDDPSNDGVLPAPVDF

Protein skinhead-1 = biological target: T3, Protein skinhead-1 (Caenorhabditis elegans, UniProt P34707); assay type: functional
T3 sequence (P34707 whole entry): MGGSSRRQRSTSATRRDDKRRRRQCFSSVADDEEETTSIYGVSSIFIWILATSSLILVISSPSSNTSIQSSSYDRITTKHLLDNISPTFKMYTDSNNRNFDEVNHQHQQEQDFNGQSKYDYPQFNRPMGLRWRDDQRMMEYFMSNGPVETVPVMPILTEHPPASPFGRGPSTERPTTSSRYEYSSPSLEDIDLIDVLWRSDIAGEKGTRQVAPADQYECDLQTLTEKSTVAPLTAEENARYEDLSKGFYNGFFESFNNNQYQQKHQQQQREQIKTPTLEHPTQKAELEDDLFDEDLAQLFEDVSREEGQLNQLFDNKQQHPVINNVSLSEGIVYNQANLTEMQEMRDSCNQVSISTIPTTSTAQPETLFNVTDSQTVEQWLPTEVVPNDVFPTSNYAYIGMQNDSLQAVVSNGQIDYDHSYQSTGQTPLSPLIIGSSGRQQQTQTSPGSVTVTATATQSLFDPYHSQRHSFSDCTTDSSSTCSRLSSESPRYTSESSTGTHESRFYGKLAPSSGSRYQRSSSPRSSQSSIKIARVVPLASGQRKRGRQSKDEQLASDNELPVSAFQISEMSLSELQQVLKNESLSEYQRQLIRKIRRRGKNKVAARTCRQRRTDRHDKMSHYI

[2] = biological target: T4, Polyadenylate-binding protein 1 (Homo sapiens, UniProt P11940); assay: MLLE binding blockers, Cy5 peptide tracer – biochemical, fluorescence polarization, Cy5-PAM2 peptide, secondary, miRNA deadenylation inhibitor project, dose response (AID 602260); assay type: functional; conditions: read-out: IC50_Mean
T4 sequence (P11940 whole entry, the tested form may be a part): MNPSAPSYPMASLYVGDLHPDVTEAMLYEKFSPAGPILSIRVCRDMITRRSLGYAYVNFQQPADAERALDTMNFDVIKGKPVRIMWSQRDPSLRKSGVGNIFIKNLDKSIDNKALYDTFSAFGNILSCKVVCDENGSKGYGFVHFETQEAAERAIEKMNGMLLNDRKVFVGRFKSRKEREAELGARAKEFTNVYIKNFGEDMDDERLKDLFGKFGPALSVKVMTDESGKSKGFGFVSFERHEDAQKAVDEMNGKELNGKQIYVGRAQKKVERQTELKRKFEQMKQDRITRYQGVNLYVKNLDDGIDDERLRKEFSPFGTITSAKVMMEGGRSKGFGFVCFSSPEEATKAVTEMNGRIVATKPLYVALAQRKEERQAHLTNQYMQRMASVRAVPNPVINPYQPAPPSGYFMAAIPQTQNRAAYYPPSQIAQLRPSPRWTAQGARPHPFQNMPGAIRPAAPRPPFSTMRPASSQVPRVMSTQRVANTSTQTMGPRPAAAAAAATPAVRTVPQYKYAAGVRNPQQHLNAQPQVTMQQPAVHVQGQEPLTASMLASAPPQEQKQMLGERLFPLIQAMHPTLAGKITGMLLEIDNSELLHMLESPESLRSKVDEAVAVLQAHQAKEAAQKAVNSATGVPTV

[3] = biological target: T4, Polyadenylate-binding protein 1; assay: MLLE domain peptide-binding blockers, IC50 – biochemical, fluorescence polarization, FITC-PAM2 peptide, dose response (AID 602259); assay type: functional; conditions: read-out: IC50_Mean
[4] = tested on: Streptococcus sp. 'group A'; assay: Streptococcus pyogenes SK(-)GAS viability under kanamycin – luminescence, BacTiterGlo, confirmation, counter-screen for streptokinase expression inhibitor project, dose response (AID 1900); assay type: functional, organism-based
Streptokinase A = biological target: T5, Streptokinase A (Streptococcus pyogenes serotype M1, UniProt P10520); assay: viability-normalized secreted streptokinase activity reduction – plasminogen activation absorbance, OD405, dose response (AID 1914); assay type: functional, Streptococcus pyogenes M1 GAS;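 note: secreted streptokinase activity via plasminogen activation per viability signal from cell pellet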
T5 sequence (P10520 whole entry): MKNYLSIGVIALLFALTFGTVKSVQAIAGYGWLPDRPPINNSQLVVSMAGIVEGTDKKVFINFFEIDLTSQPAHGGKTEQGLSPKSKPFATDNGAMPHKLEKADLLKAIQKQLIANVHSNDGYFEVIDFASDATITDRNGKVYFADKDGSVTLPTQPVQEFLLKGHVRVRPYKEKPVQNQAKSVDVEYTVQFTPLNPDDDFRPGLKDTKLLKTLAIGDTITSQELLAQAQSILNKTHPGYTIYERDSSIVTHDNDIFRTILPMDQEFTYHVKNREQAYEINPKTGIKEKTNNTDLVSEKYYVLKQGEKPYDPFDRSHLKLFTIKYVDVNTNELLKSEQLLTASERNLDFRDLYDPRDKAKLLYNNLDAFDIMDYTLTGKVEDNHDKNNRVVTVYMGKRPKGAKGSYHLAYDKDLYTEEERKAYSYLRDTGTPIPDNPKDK

Streptococcus = assay: GAS UMAA2166 growth inhibition – luminescence, BacTiterGlo, counter-screen for streptokinase expression inhibitor project, dose response (AID 1915); assay type: functional, organism-based;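 note: potency for reduction of bacterial viability or growth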
[5] = biological target: T6, Heat shock factor protein 1 (Mus musculus, UniProt P38532); assay: decrease of HSF1-responsive luciferase luminescence – cell-based, NIH3T3, dose retest, confirmation (AID 2382); assay type: functional;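 note: NIH3T3 fibroblasts with HSF1-driven luciferase reporter stressed by proteasome inhibitor MG132; luminescence from HSF1-driven luciferase expression after 8 hours of MG132 stress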
T6 sequence (P38532 whole entry): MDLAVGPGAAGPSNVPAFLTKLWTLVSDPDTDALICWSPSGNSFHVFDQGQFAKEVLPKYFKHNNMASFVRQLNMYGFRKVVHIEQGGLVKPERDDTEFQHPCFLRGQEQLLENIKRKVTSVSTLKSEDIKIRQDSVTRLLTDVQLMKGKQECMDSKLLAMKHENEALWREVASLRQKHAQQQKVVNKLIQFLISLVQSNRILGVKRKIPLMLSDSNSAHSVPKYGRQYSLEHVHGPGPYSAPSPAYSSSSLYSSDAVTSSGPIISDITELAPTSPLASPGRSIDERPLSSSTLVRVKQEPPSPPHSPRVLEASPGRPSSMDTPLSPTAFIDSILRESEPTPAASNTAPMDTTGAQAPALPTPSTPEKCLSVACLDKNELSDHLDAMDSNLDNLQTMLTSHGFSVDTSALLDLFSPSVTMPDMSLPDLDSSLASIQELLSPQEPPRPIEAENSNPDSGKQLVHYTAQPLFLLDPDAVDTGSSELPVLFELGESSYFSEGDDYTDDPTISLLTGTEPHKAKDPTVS

[6] = Trypanosoma cruzi growth suppression in host cells – NIH3T3 host cells, beta-gal luminescence, confirmation (AID 2044); assay type: functional, cell-based;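 note: intracellular parasites grown in NIH/3T3 mouse fibroblasts as host cells; luminescent beta-galactosidase reporter signal from transgenic T. cruzi replicating inside host cells; inhibitors lower the luminescence signal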
[7] = NIH3T3 cell viability loss – ATP luminescence, mouse fibroblasts, counter-screen, dose response (AID 2010); assay type: functional, cell-based;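 note: cells exposed to compound for about 90 hours before reading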
Cytochrome P450 2D6 = Cytochrome P450 2D6 (Homo sapiens, UniProt P10635);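 note: CYP2D6 member of a cytochrome P450 panel assay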
Sequence of Cytochrome P450 2D6 (P10635 whole entry): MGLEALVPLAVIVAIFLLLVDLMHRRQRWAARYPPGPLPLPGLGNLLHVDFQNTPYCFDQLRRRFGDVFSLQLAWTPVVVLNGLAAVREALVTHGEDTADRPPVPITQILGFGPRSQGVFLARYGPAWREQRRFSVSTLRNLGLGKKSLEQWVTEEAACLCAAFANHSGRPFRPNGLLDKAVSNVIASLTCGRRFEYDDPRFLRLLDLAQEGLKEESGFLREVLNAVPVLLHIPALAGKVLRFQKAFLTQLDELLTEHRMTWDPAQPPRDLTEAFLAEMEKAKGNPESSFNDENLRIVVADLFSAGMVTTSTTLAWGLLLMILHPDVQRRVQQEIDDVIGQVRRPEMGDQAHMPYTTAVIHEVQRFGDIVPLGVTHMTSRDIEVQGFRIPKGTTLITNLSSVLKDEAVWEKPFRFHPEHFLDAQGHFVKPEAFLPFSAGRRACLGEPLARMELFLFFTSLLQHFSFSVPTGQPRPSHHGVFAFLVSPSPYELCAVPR

Cytochrome P450 1A2 = biological target: T7, Cytochrome P450 1A2 (Homo sapiens, UniProt P05177);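 note: PubChem cytochrome P450 panel assay, CYP1A2 panel member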
T7 sequence (P05177 whole entry): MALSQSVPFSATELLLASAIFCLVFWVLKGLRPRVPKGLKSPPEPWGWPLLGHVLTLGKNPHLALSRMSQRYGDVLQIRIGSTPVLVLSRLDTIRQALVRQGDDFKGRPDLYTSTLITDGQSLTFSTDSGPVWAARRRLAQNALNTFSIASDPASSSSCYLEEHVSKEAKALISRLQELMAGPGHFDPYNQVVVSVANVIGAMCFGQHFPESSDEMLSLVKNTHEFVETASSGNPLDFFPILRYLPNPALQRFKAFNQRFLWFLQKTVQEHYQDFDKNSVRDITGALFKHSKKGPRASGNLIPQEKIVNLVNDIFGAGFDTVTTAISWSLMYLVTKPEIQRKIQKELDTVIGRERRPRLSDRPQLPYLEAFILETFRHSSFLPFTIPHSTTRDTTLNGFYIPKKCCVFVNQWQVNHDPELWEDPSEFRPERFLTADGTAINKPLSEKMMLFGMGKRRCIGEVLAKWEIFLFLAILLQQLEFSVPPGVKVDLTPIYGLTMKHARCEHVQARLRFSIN

Cytochrome P450 3A4 = Cytochrome P450 3A4 (Homo sapiens, UniProt P08684);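 note: CYP3A4 tested as one member of a cytochrome P450 panel screen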
Sequence of Cytochrome P450 3A4 (P08684 whole entry): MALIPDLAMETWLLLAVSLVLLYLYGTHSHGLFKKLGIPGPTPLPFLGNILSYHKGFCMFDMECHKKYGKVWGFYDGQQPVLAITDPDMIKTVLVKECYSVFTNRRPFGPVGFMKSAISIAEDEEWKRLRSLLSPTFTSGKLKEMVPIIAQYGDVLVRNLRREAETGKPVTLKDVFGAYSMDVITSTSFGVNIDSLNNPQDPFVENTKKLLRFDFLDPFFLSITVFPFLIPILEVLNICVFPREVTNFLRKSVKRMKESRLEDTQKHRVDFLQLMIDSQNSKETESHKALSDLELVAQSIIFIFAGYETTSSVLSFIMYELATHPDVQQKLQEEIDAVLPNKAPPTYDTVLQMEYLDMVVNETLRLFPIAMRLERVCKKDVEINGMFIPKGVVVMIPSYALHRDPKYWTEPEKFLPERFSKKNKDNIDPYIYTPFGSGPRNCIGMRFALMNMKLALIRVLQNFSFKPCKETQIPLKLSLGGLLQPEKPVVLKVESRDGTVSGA

[8] = P. falciparum Dd2 growth inhibitors, dose response, SYBR Green, cherry-picked samples (AID 1159567); assay type: functional, cell-based

COc1cc(/C=C(\C#N)c2nc3ccccc3o2)ccc1O
AC50 [1]: > 380 µM (inactive)
EC50 (Protein RecA): 2.41 µM (active)

Cc1cc2ccccc2n1CCNC(=O)C1CC1
IC50 (Protein skinhead-1): > 100 µM (inactive)

Cc1c(NC(=O)Oc2ccccc2)sc(=S)n1C
IC50 [2]: > 66 µM (inactive)
IC50 [3]: > 66 µM (inactive)

Fc1ccc(SCCc2ccncc2)cc1
IC50 [2]: > 66 µM (inactive)
IC50 [3]: > 66 µM (inactive)

O=C(CSc1nc[nH]n1)Nc1ccc(Cl)c(Cl)c1
IC50 (Protein skinhead-1): > 100 µM (inactive)

CC(C)c1nc(SCC(=O)Nc2ccc(N3CCOCC3)cc2)c2ccccc2n1
IC50 [2]: > 66 µM (inactive)
IC50 [3]: > 66 µM (inactive)

O=C(CSc1nnc(COc2cccc3ccccc23)o1)N1c2ccccc2CCc2ccccc21
IC50 (Protein skinhead-1): > 100 µM (inactive)

Cc1c(C)n(Cc2ccc(F)cc2)c2ccc(C(=O)N3CCN(c4ccccn4)CC3)cc12
EC50 [4]: 16.5 µM (active)
EC50 (Streptokinase A): 146 µM (inconclusive)
EC50 (Streptococcus): 28.4 µM (active)
IC50 (Protein skinhead-1): > 100 µM (inactive)

O=[N+]([O-])c1cccc(NC(S)=Nc2nc(-c3ccccc3Cl)cs2)c1
IC50 [2]: > 66 µM (inactive)
IC50 [3]: > 66 µM (inactive)

Fc1ccc2c(c1)c1nnc(S)nc1n2CCc1ccccc1
IC50 [2]: > 66 µM (inactive)
IC50 [3]: > 66 µM (inactive)

COC(=O)C(C#N)C(c1cccnc1)c1c(C)n[nH]c1O (stereo not drawn)
AC50 [1]: 3.08 µM (active)
EC50 (Protein RecA): 1.2 µM (active)

O=C(CCl)N1N=C(c2cccs2)CC1c1ccco1 (stereo not drawn)
EC50 [5]: 6.29 µM (active)
EC50 [6]: 1.98 µM (active)
EC50 [7]: 4.92 µM (active)
AC50 [1]: 25.1 µM (active)
EC50 (Protein RecA): 4.21 µM (active)

O=C(CSc1nc2ccccc2c(=O)n1CCCO)NCc1ccccc1
IC50 [2]: > 66 µM (inactive)
IC50 [3]: > 66 µM (inactive)
AC50 (Cytochrome P450 2D6): 39.8 µM (inconclusive)
AC50 (Cytochrome P450 1A2): 31.6 µM (inconclusive)
AC50 (Cytochrome P450 3A4): 3.55 µM (inconclusive)

CC1(Cc2cccc(C(F)(F)F)c2)C(=O)Nc2ccc(-c3ccc(F)c(Cl)c3)cc21 (stereo not drawn)
IC50 (Protein skinhead-1): > 100 µM (inactive)

Cn1nccc1-c1ccc(C(=O)Nc2cccc(NS(C)(=O)=O)c2)c2occc12
IC50 (Protein skinhead-1): > 100 µM (inactive)

O=C(Nc1cccc(F)c1)N1CC(=O)N2[C@H](C1)[C@@H](c1ccc(C#CC3CC3)cc1)[C@@H]2CO
AC50 [8]: 8.07 µM (active)

CCC(=O)Nc1ccc2c(c1)OC[C@@H](C)N(Cc1cccc(F)c1)C[C@@H](C)[C@H](OC)CN(C)C2=O
AC50 [8]: 3.64 µM (active)

Cc1ccccc1S(=O)(=O)N1CC(=O)N2[C@H](CO)[C@H](c3ccc(C#CC4CC4)cc3)[C@@H]2C1
AC50 [8]: 8.89 µM (active)

C[C@H](CO)N1C[C@H](C)[C@@H](CN(C)CC2CCCCC2)Oc2ccc(NC(=O)Nc3ccc(F)cc3)cc2CC1=O
AC50 [8]: 6.76 µM (active)

C[C@H](CO)N1C[C@H](C)[C@H](CN(C)S(=O)(=O)c2cccs2)OCc2ccccc2-c2c(n(C)c3ccccc23)C1=O
AC50 [8]: 26.1 µM (active)
